# Source: patent US20200016136A1 (VIIV HEALTHCARE UK (NO. 5) LIMITED, priority 2017, published 2020)
# Test system: NL-RLuc virus (recombinant NL4-3 HIV with Renilla Luciferase gene)
# Assay: Inhibition of HIV replication (NL-RLuc virus in MT-2 cells, luciferase readout)
# Type: cell-based, Human immunodeficiency virus (HIV)
# Details: MT2, 120 h
# Summary of the method: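 EC50 derived via median effect equation from at least 2 experiments, using luciferase expression as virus-growth readout. Replication-competent NL-RLuc reporter virus (nef partly replaced by Renilla luciferase) infected MT-2 cells with serial compound dilutions; 5-day incubation in RPMI 1640 plus 10% FBS.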
row,SMILES,EC50 [nM]
1,"Cc1nc(CO)c([C@H](OC(C)(C)C)C(=O)O)c(N2CCC(C)(C)CC2)c1-c1ccc2c(c1)CCN(c1ncnc3c1oc1ccccc13)C2 [Example 133, (S)-2-(5-(2-(Benzofuro[3,2-d]pyrimidin-4-yl)-1,2,3,4-tetrahydroisoquinolin-6-yl)-4-(4,4-dimethylpiperidin-1-yl)-2-(hydroxymethyl)-6-methylpyridin-3-yl)-2-(tert-butoxy)acetic Acid]",3
2,"Cc1nc(C)c([C@H](OC(C)(C)C)C(=O)O)c(N2CCC(C)(C)CC2)c1-c1ccc2c(c1)CCN(c1cc(N3CCC(N4CCOCC4)CC3)ncn1)C2 [Example 134, (S)-2-(tert-Butoxy)-2-(4-(4,4-dimethylpiperidin-1-yl)-2,6-dimethyl-5-(2-(6-(4-morpholinopiperidin-1-yl)pyrimidin-4-yl)-1,2,3,4-tetrahydroisoquinolin-6-yl)pyridin-3-yl)acetic Acid]",4
3,"Cc1nc(C)c([C@H](OC(C)(C)C)C(=O)O)c(N2CCC(C)(C)CC2)c1-c1ccc2c(c1)CCN(c1cc(N3CCC(N4CCCCC4)CC3)ncn1)C2 [Example 135, (S)-2-(5-(2-(6-([1,4′-Bipiperidin]-1′-yl)pyrimidin-4-yl)-1,2,3,4-tetrahydroisoquinolin-6-yl)-4-(4,4-dimethylpiperidin-1-yl)-2,6-dimethylpyridin-3-yl)-2-(tert-butoxy)acetic Acid]",19
4,"Cc1nc(C)c([C@H](OC(C)(C)C)C(=O)O)c(N2CCC(C)(C)CC2)c1-c1ccc2c(c1)CCN(c1cc(N3CCC(N4CCN(C)CC4)CC3)ncn1)C2 [Example 136, (S)-2-(tert-Butoxy)-2-(4-(4,4-dimethylpiperidin-1-yl)-2,6-dimethyl-5-(2-(6-(4-(4-methylpiperazin-1-yl)piperidin-1-yl)pyrimidin-4-yl)-1,2,3,4-tetrahydroisoquinolin-6-yl)pyridin-3-yl)acetic Acid]",16
5,"Cc1nc(C)c([C@H](OC(C)(C)C)C(=O)O)c(N2CCC(C)(C)CC2)c1-c1ccc2c(c1)CCN(c1cc(N3CC(C)CC(C)C3)ncn1)C2 (stereo partly drawn) [Example 137, (2S)-2-(tert-Butoxy)-2-(4-(4,4-dimethylpiperidin-1-yl)-5-(2-(6-(3,5-dimethylpiperidin-1-yl)pyrimidin-4-yl)-1,2,3,4-tetrahydroisoquinolin-6-yl)-2,6-dimethylpyridin-3-yl)acetic Acid]",7
6,"Cc1nc(C)c([C@H](OC(C)(C)C)C(=O)O)c(N2CCC(C)(C)CC2)c1-c1ccc2c(c1)CCN(c1cc(N3CCC(C)CC3)ncn1)C2 [Example 138, (S)-2-(tert-Butoxy)-2-(4-(4,4-dimethylpiperidin-1-yl)-2,6-dimethyl-5-(2-(6-(4-methylpiperidin-1-yl)pyrimidin-4-yl)-1,2,3,4-tetrahydroisoquinolin-6-yl)pyridin-3-yl)acetic Acid]",2
7,"Cc1nc(C)c([C@H](OC(C)(C)C)C(=O)O)c(N2CCC(C)(C)CC2)c1-c1ccc2c(c1)CCN(c1cc(N3CCCC(C)(C)C3)ncn1)C2 [Example 139, (S)-2-(tert-Butoxy)-2-(4-(4,4-dimethylpiperidin-1-yl)-5-(2-(6-(3,3-dimethylpiperidin-1-yl)pyrimidin-4-yl)-1,2,3,4-tetrahydroisoquinolin-6-yl)-2,6-dimethylpyridin-3-yl)acetic Acid]",4
8,"Cc1nc(C)c([C@H](OC(C)(C)C)C(=O)O)c(N2CCC(C)(C)CC2)c1-c1ccc2c(c1)CCN(c1cc(N(C)CCCN(C)C)ncn1)C2 [Example 140, (S)-2-(tert-Butoxy)-2-(5-(2-(6-((3-(dimethylamino)propyl)(methyl)amino)pyrimidin-4-yl)-1,2,3,4-tetrahydroisoquinolin-6-yl)-4-(4,4-dimethylpiperidin-1-yl)-2,6-dimethylpyridin-3-yl)acetic Acid]",35
9,"CCC(C)(C)O[C@H](C(=O)O)c1c(C)nc(C)c(-c2ccc3c(c2)CCN(c2ncnc4c2oc2ccccc24)C3)c1N1CCC(C)(C)CC1 [Example 141, (S)-2-(5-(2-(Benzofuro[3,2-d]pyrimidin-4-yl)-1,2,3,4-tetrahydroisoquinolin-6-yl)-4-(4,4-dimethylpiperidin-1-yl)-2,6-dimethylpyridin-3-yl)-2-(tert-pentyloxy)acetic Acid]",2
10,"Cc1nc(C)c([C@H](OC(C)(C)C)C(=O)O)c(N2CCC(C)(C)CC2)c1-c1ccc2c(c1)CCN(c1cccc(C(=O)O)n1)C2 [Example 142, (S)-6-(6-(5-(tert-Butoxy(carboxy)methyl)-4-(4,4-dimethylpiperidin-1-yl)-2,6-dimethylpyridin-3-yl)-3,4-dihydroisoquinolin-2(1H)-yl)picolinic Acid]",381
11,"Cc1nc(C)c([C@H](OC(C)(C)C)C(=O)O)c(N2CCC(C)(C)CC2)c1-c1ccc2c(c1)CCN(c1ccc(C(F)(F)F)cn1)C2 [Example 143, (S)-2-(tert-butoxy)-2-(4-(4,4-dimethylpiperidin-1-yl)-2,6-dimethyl-5-(2-(5-(trifluoromethyl)pyridin-2-yl)-1,2,3,4-tetrahydroisoquinolin-6-yl)pyridin-3-yl)acetic Acid]",14
12,"Cc1nc(C)c([C@H](OC(C)(C)C)C(=O)O)c(N2CCC(C)(C)CC2)c1-c1ccc2c(c1)CCN(c1ccnc(N3CCC(CCO)CC3)n1)C2 [Example 144, (S)-2-(tert-Butoxy)-2-(4-(4,4-dimethylpiperidin-1-yl)-5-(2-(2-(4-(2-hydroxyethyl)piperidin-1-yl)pyrimidin-4-yl)-1,2,3,4-tetrahydroisoquinolin-6-yl)-2,6-dimethylpyridin-3-yl)acetic Acid]",3
13,"Cc1nc(C)c([C@H](OC(C)(C)C)C(=O)O)c(N2CCC(C)(C)CC2)c1-c1ccc2c(c1)CCN(c1nccc(N3CCC(CC(C)(C)O)CC3)n1)C2 [Example 145, (S)-2-(tert-Butoxy)-2-(4-(4,4-dimethylpiperidin-1-yl)-5-(2-(4-(4-(2-hydroxy-2-methylpropyl)piperidin-1-yl)pyrimidin-2-yl)-1,2,3,4-tetrahydroisoquinolin-6-yl)-2,6-dimethylpyridin-3-yl)acetic Acid]",10
14,"Cc1ncc(-c2ccc3c(c2)CCN(c2nccc(-c4cccnc4)n2)C3)c(N2CCC(C)(C)CC2)c1[C@H](OC(C)(C)C)C(=O)O [Example 146, (S)-2-(tert-Butoxy)-2-(4-(4,4-dimethylpiperidin-1-yl)-2-methyl-5-(2-(4-(pyridin-3-yl)pyrimidin-2-yl)-1,2,3,4-tetrahydroisoquinolin-6-yl)pyridin-3-yl)acetic Acid]",0.5
15,"Cc1ncc(-c2ccc3c(c2)CCN(c2nccc(-c4cnccn4)n2)C3)c(N2CCC(C)(C)CC2)c1[C@H](OC(C)(C)C)C(=O)O [Example 147, (S)-2-(tert-Butoxy)-2-(4-(4,4-dimethylpiperidin-1-yl)-2-methyl-5-(2-(4-(pyrazin-2-yl)pyrimidin-2-yl)-1,2,3,4-tetrahydroisoquinolin-6-yl)pyridin-3-yl)acetic Acid]",2
16,"CC1(C)CCN(c2c(-c3ccc4c(c3)CCN(c3nccc(N5CCOCC5)n3)C4)cnc(Cl)c2[C@H](OC(C)(C)C)C(=O)O)CC1 [Example 148, (S)-2-(tert-Butoxy)-2-(2-chloro-4-(4,4-dimethylpiperidin-1-yl)-5-(2-(4-morpholinopyrimidin-2-yl)-1,2,3,4-tetrahydroisoquinolin-6-yl)pyridin-3-yl)acetic Acid]",0.2
17,"CC1(C)CCN(c2c(-c3ccc4c(c3)CCN(c3nccc(-c5cccnc5)n3)C4)cnc(Cl)c2[C@H](OC(C)(C)C)C(=O)O)CC1 [Example 149, (S)-2-(tert-Butoxy)-2-(2-chloro-4-(4,4-dimethylpiperidin-1-yl)-5-(2-(4-(pyridin-3-yl)pyrimidin-2-yl)-1,2,3,4-tetrahydroisoquinolin-6-yl)pyridin-3-yl)acetic Acid]",2
18,"CC1(C)CCN(c2c(-c3ccc4c(c3)CCN(c3nccc(N5CCOCC5)n3)C4)c(CN3CCC4(CCC4)CC3)nc(Cl)c2[C@H](OC(C)(C)C)C(=O)O)CC1 [Example 150, (S)-2-(6-((7-Azaspiro[3.5]nonan-7-yl)methyl)-2-chloro-4-(4,4-dimethylpiperidin-1-yl)-5-(2-(4-morpholinopyrimidin-2-yl)-1,2,3,4-tetrahydroisoquinolin-6-yl)pyridin-3-yl)-2-(tert-butoxy)acetic Acid]",0.3
19,"CC1(C)CCN(c2c(-c3ccc4c(c3)CCN(c3nccc(N5CCOCC5)n3)C4)c(CO)nc(Cl)c2[C@H](OC(C)(C)C)C(=O)O)CC1 [Example 151, (S)-2-(tert-Butoxy)-2-(2-chloro-4-(4,4-dimethylpiperidin-1-yl)-6-(hydroxymethyl)-5-(2-(4-morpholinopyrimidin-2-yl)-1,2,3,4-tetrahydroisoquinolin-6-yl)pyridin-3-yl)acetic Acid]",2
20,"CC1(C)CCN(c2c(-c3ccc4c(c3)CCN(c3ncnc5c3oc3ncccc35)C4)c(CN3CCC4(CCC4)CC3)nc(Cl)c2[C@H](OC(C)(C)C)C(=O)O)CC1 [Example 152, (S)-2-(6-((7-Azaspiro[3.5]nonan-7-yl)methyl)-2-chloro-4-(4,4-dimethylpiperidin-1-yl)-5-(2-(pyrido[3′,2′:4,5]furo[3,2-d]pyrimidin-4-yl)-1,2,3,4-tetrahydroisoquinolin-6-yl)pyridin-3-yl)-2-(tert-butoxy)acetic Acid]",0.1
21,"CC1(C)CCN(c2c(-c3ccc4c(c3)CCN(c3nccc(-c5cnccn5)n3)C4)cnc(Cl)c2[C@H](OC(C)(C)C)C(=O)O)CC1 [Example 153, (S)-2-(tert-Butoxy)-2-(2-chloro-4-(4,4-dimethylpiperidin-1-yl)-5-(2-(4-(pyrazin-2-yl)pyrimidin-2-yl)-1,2,3,4-tetrahydroisoquinolin-6-yl)pyridin-3-yl)acetic Acid]",2
22,"Cc1cccc(Cl)c1CN1CCc2cc(-c3c(CNCCCc4ccccc4)nc(C)c([C@H](OC(C)(C)C)C(=O)O)c3N3CCC(C)(C)CC3)ccc2C1 [Example 154, (S)-2-(tert-Butoxy)-2-(5-(2-(2-chloro-6-methylbenzyl)-1,2,3,4-tetrahydroisoquinolin-6-yl)-4-(4,4-dimethylpiperidin-1-yl)-2-methyl-6-(((3-phenylpropyl)amino)methyl)pyridin-3-yl)acetic Acid]",97
